# Laboratory results taken from patent US20110038948A1, “Methods of Reducing the Production of Reactive Oxygen Species and Methods of Screening or Identifying Compounds and Compositions that Reduce the Production of Reactive Oxygen Species” (UNIVERSITY OF TENNESSEE RESEARCH FOUNDATION, priority 2005, published 2011).
# Tests used:
# [1] = tested on: TNFα; assay: TNFα expression in RAW 264 macrophages; assay type: cell-based; conditions: RAW 264 macrophages cultured alone; compound added to calcitriol
# Description: (§1) RAW 264 macrophages and 3T3-L1 preadipocytes (American Type Culture Collection) were incubated at a density of 8000 cells/cm2 (10 cm2 dish) and grown in Dulbecco's modified Eagle's medium (DMEM) containing 10% FBS and antibiotics (adipocyte medium) at 37° C. in 5% CO2 in air. Confluent 3T3-L1 preadipocytes were induced to differentiate with a standard differentiation medium consisting of DMEM-F10 (1:1, vol/vol) medium supplemented with 1% FBS, 1 μM dexamethasone, IBMX (0.5 mM) and antibiotics (1% Penicillin-Streptomycin). Preadipocytes were maintained in this differentiation medium for 3 days and subsequently cultured in adipocyte medium. Cultures were re-fed every 2-3 days to allow 90% cells to reach fully differentiation for 3T3-L1 adipocytes or grow to a confluence for RAW 264 before conducting chemical treatment.
# (§2) Cells were washed with fresh adipocyte medium, re-fed with medium containing the indicated treatments, and incubated at 37° C. in 5% CO2 for 48 hours before analysis. Cell viability was measured via trypan blue exclusion.
# (§3) Human adipocytes (Zen-Bio, Inc.), 3T3-L1 adipocytes, RAW264 macrophages were obtained and co-cultured by using transwell inserts with 0.4 μm porous membranes (Corning) to separate adipocytes and macrophages. All data are expressed as mean±SEM. Data were evaluated for statistical significance by analysis of one-way or two-way variance (ANOVA; means with different letter differ, p<0.05).
# Adipocyte and muscle 18s, CD14, TNFα, MIP, M-CSF, IL-6 and MCP-1 were quantitatively measured using a Smart Cycler Real Time PCR System (Cepheid, Sunnyvale, Calif.) with a TaqMan 1000 Core Reagent Kit (Applied Biosystems, Branchburg, N.J.). […] Reactions of quantitative RT-PCR for standards and unknown samples were also performed according to the instructions of Smart Cycler System (Cepheid, Sunnyvale, Calif.) and TaqMan Real Time PCR Core Kit (Applied Biosystems, Branchburg, N.J.). The mRNA quantitation for each sample was further normalized using the corresponding 18s quantitation.
# [2] = tested on: IL-6; assay: IL-6 expression in RAW 264 macrophages; assay type: cell-based; conditions: RAW 264 macrophages cultured alone; compound added to calcitriol
# Description: as §1, with “Cultures were re-fed every 2-3 days to allow 90% cells to reach fully differentiation for 3T3-L1 adipocytes or grow to a confluence for RAW 264 before conducting chemical treatment.” left out
# as §2
# as §3, with “p<0.05). […]” for “p<0.05).”
# [3] = tested on: 3T3-L1 adipocytes; assay: Cell proliferation / DNA synthesis in cultured adipocytes (CyQUANT); assay type: cell-based, mouse; conditions: compound plus glucose 30 mmol/L, 48 hours
# Description: (§4) 3T3-L1 preadipocytes were incubated at a density of 8000 cells/cm^2 (10 cm^2 dish) and grown in Dulbecco's modified Eagle's medium (DMEM) containing 10% FBS and antibiotics (adipocyte medium) at 37° C. in 5% CO2 in air. Confluent preadipocytes were induced to differentiate with a standard differentiation medium consisting of DMEM-F10 (1:1, vol/vol) medium supplemented with 1% FBS, 1 μM dexamethasone, IBMX (0.5 mM) and antibiotics (1% Penicillin-Streptomycin). Preadipocytes were maintained in this differentiation medium for 3 days and subsequently cultured in adipocyte medium. Cultures were re-fed every 2-3 days to allow 90% of cells to reach full differentiation before conducting chemical treatment. Chemicals were freshly diluted in adipocyte medium before treatment. Cells were washed with fresh adipocyte medium, re-fed with medium containing the different treatments, and incubated at 37° C. in 5% CO2 in air before analysis. Cell viability was measured via trypan blue exclusion. Cells were plated in DMEM with different treatment in duplicate in 96-well plates. After 48 h, a CyQUANT Cell Proliferation Kit (Molecular Probes, Eugene, Oreg.) was used following the manufacturer's protocol. a microplate fluorometer (Packard Instrument Company, Inc., Downers Grove, Ill.) was used to measure CyQUANT fluorescence. Cell viability was determined by Trypan blue exclusion examination.
# [4] = tested on: 3T3-L1 adipocytes; assay: Intracellular ROS generation in cultured adipocytes (H2-DCFDA); assay type: cell-based, mouse
# Description: as §4, with “exclusion. […]” for “exclusion.”, “loaded” for “plated in DMEM”, “H2-DCFDA (2 μmol/L) 30 minute before the end of the incubation period (48 h).” for “different treatment in duplicate in 96-well plates.”, “washing twice with PBS, cells were scraped and disrupted by sonication on ice (20 s). Fluorescence (emission 543 nm or 527 nm) and DNA content were then measured as described previously. The intensity of fluorescence” for “48 h, a CyQUANT Cell Proliferation Kit (Molecular Probes, Eugene, Oreg.)”, “expressed as arbitrary units per ng DNA.” for “used following the manufacturer's protocol. a microplate fluorometer (Packard Instrument Company, Inc., Downers Grove, Ill.) was used to measure CyQUANT fluorescence. Cell viability was determined by Trypan blue exclusion examination.”
# [5] = tested on: 3T3-L1 adipocytes; assay: Mitochondrial membrane potential (JC-1); assay type: cell-based, mouse; conditions: GDP 100 μmol/L plus H2O2
# Description: 3T3-L1 preadipocytes were incubated at a density of 8000 cells/cm^2 (10 cm^2 dish) and grown in Dulbecco's modified Eagle's medium (DMEM) containing 10% FBS and antibiotics (adipocyte medium) at 37° C. in 5% CO2 in air. Confluent preadipocytes were induced to differentiate with a standard differentiation medium consisting of DMEM-F10 (1:1, vol/vol) medium supplemented with 1% FBS, 1 μM dexamethasone, IBMX (0.5 mM) and antibiotics (1% Penicillin-Streptomycin). Preadipocytes were maintained in this differentiation medium for 3 days and subsequently cultured in adipocyte medium. Cultures were re-fed every 2-3 days to allow 90% of cells to reach full differentiation before conducting chemical treatment. Chemicals were freshly diluted in adipocyte medium before treatment. […] Cell viability was measured via trypan blue exclusion.
# Mitochondrial membrane potential was analyzed fluorometrically with a lipophilic cationic dye JC-1 (5,5′,6,6′-tetrachloro-1,1′,3,3′-tetraethylbenzimidazol carbocyanine iodide) using a mitochondrial potential detection kit (Biocarta, San Diego, Calif.). Mitochondrial potential was determined as the ratio of red fluorescence (excitation 550 nm, emission 600 nm) and green fluorescence (excitation 485 nm, emission 535 nm) using a fluorescence microplate reader.
# [6] = tested on: NADPH oxidase; assay: NADPH oxidase expression in cultured adipocytes; assay type: cell-based, mouse; conditions: glucose 30 mmol/L alone or plus compound, 48 hours
# Description: (§5) 3T3-L1 preadipocytes were incubated at a density of 8000 cells/cm^2 (10 cm^2 dish) and grown in Dulbecco's modified Eagle's medium (DMEM) containing 10% FBS and antibiotics (adipocyte medium) at 37° C. in 5% CO2 in air. Confluent preadipocytes were induced to differentiate with a standard differentiation medium consisting of DMEM-F10 (1:1, vol/vol) medium supplemented with 1% FBS, 1 μM dexamethasone, IBMX (0.5 mM) and antibiotics (1% Penicillin-Streptomycin). Preadipocytes were maintained in this differentiation medium for 3 days and subsequently cultured in adipocyte medium. Cultures were re-fed every 2-3 days to allow 90% of cells to reach full differentiation before conducting chemical treatment. Chemicals were freshly diluted in adipocyte medium before treatment. Cells were washed with fresh adipocyte medium, re-fed with medium containing the different treatments, and incubated at 37° C. in 5% CO2 in air before analysis. Cell viability was measured via trypan blue exclusion. Adipocyte 18s, cyclin A, NADPH oxidase, and UCP2 were quantitatively measured using a Smart Cycler Real Time PCR System (Cepheid, Sunnyvale, Calif.) with a TaqMan 1000 Core Reagent Kit (Applied Biosystems, Branchburg, N.J.). The primers and probe sets were ordered from Applied Biosystems TaqMan® Assays-on-Demand™ Gene Expression primers and probe set collection according to manufacture's instruction. Pooled adipocyte total RNA was serial-diluted in the range of 1.5625-25 ng and used to establish a standard curve; total RNAs for unknown samples were also diluted in this range. Reactions of quantitative RT-PCR for standards and unknown samples were also performed according to the instructions of Smart Cycler System (Cepheid, Sunnyvale, Calif.) and TaqMan Real Time PCR Core Kit (Applied Biosystems, Branchburg, N.J.). The mRNA quantitation for each sample was further normalized using the corresponding 18s quantitation.
# [7] = tested on: cyclin A; assay: Cyclin A expression in cultured adipocytes; assay type: cell-based, mouse; conditions: compound plus glucose 30 mmol/L, 48 hours
# Description: as §5, with “Cells were washed with fresh adipocyte medium, re-fed with medium containing the different treatments, and incubated at 37° C. in 5% CO2 in air before analysis.” left out, “The primers and probe sets were ordered from Applied Biosystems TaqMan® Assays-on-Demand™ Gene Expression primers and probe set collection according to manufacture's instruction. Pooled adipocyte total RNA was serial-diluted in the range of 1.5625-25 ng and used to establish a standard curve; total RNAs for unknown samples were also diluted in this range.” left out
# [8] = tested on: C2C12 myotubes; assay: Fatty acid oxidation (palmitate oxidation) in muscle cells; assay type: cell-based, murine
# Description: FIG. 53: Fatty acid oxidation was determined via palmitate oxidation. […] Data are corrected for DNA content. Values are presented as mean±SEM, n=6. Means with different letter differ with p<0.05.
# The adipose tissue-skeletal muscle endocrine axis may play a potential role in regulating metabolic energy partitioning. […] While both calcium and dairy accelerate adipose tissue loss, dairy exerts a substantially greater effect and exerts a protective effect on lean tissue during hypocaloric diets. We have shown that dietary calcium modulation of adiposity is mediated, in part, by suppression of calcitriol, while the additional effect of dairy is mediated by additional bioactive components; these include the high concentration of leucine, a key factor in the regulation of muscle protein turnover. […] However, the effect of leucine and calcium, in regulating this process is unclear. Accordingly, present study was designed to investigate the effect of leucine, calcitriol and calcium on energy metabolism in murine adipocytes and muscle cells. Leucine induced a 41% increase in fatty acid oxidation in C2C12 muscle cells (p<0.001) and decreased fatty acid synthase gene expression by 66% (p<0.001) in 3T3-L1 adipocytes. Calcitriol decreased muscle cell fatty acid oxidation by 17% (p<0.05) and increased adipocyte FAS gene expression by 3-fold (p<0.05).
# [9] = tested on: fatty acid synthase; assay: Fatty acid synthase gene expression in adipocytes; assay type: cell-based, murine
# From the text: The adipose tissue-skeletal muscle endocrine axis may play a potential role in regulating metabolic energy partitioning. […] However, the effect of leucine and calcium, in regulating this process is unclear. Accordingly, present study was designed to investigate the effect of leucine, calcitriol and calcium on energy metabolism in murine adipocytes and muscle cells.
# [10] = tested on: C2C12 myotubes; assay: IL-15 release by myotubes (ELISA); assay type: cell-based, murine; conditions: for effect on IL-15 release: C2C12 myotubes, 48 hours
# Description: IL-15 release in the medium was determined using ELISA. Data are corrected for DNA content. Values are presented as mean±SEM, n=6. Means with different letter differ with p<0.05.
molecule,measurement,setting,value
O=[N+]([O-])c1ccc(O)c([N+](=O)[O-])c1 [DNP],effect on calcitriol stimulated TNFα expression,[1],blocked
same,effect on calcitriol stimulated IL-6 expression,[2],blocked
Nc1nc2c(ncn2[C@@H]2O[C@H](COP(=O)(O)OP(=O)(O)O)[C@@H](O)[C@H]2O)c(=O)[nH]1 [GDP],effect on glucose induced DNA synthesis,[3],augmented
same,increase in ROS production compared with H2O2 treatment alone,"[4]; GDP 100 μmol/L plus H2O2, 48 hours, p<0.01",24%
same,effect on high glucose induced ROS production,"[4]; compound plus glucose 30 mmol/L, 48 hours",further stimulated
same,augmentation of the H2O2 effect on mitochondrial potential,[5],10%
same,effect on NADPH oxidase expression,[6],suppressed
same,effect on glucose stimulated cyclin A expression,[7],augmented
O=C[C@H](O)[C@@H](O)[C@H](O)[C@H](O)CO [glucose],effect on ROS production,"[4]; glucose 30 mmol/L, 48 hours, p<0.05",increased ROS production significantly
same,effect on NADPH oxidase expression,[6],increased
CC(C)C[C@H](N)C(=O)O [leucine],increase in fatty acid oxidation,"[8]; C2C12 muscle cells, leucine 2.5 mM, 48 hours, p<0.001",41%
same,effect on conditioned medium decreased fatty acid oxidation in muscle cells,[8]; adipocytes conditioned with leucine and/or nifedipine,attenuated
same,effect on calcitriol decreased muscle cell fatty acid oxidation,[8]; compound added to calcitriol,partially reversed
same,decrease in fatty acid synthase gene expression,"[9]; 3T3-L1 adipocytes, p<0.001",66%
same,effect on calcitriol increased adipocyte FAS gene expression,[9]; compound added to calcitriol,partially reversed
same,effect on IL-15 release,[10],without effect
"adiponectin: adipokine added to C2C12 myotubes at 70 ng/ml (protein, UniProt Q15848 19-244, looked up) Adiponectin: ETTTQGPGVLLPLPKGACTGWMAGIPGHPGHNGAPGRDGRDGTPGEKGEKGDPGLIGPKGDIGETGVPGAEGPRGFPGIQGRKGEPGEGAYVYRSAFSVGLETYVTIPNMPIRFTKIFYNQQNHYDGSTGKFHCNIPGLYYFAYHITVYMKDVKVSLFKKDKAMLFTYDQYQENNVDQASGSVLLHLEVGDQVWLQVYGEGERNGLYADNDNDSTFTGFLLYHDTN",effect on fatty acid oxidation,"[8]; C2C12 myotubes, adiponectin 70 ng/ml, 48 hours",markedly increased
same,effect on fatty acid oxidation suppressed by calcitriol,[8]; in the presence of leucine,restored
same,effect on IL-15 release,[10],significantly increased
same,effect on calcitriol inhibition of IL-15 release,[10]; adiponectin 70 ng/ml plus calcitriol 10 nM,partially reversed
